Measurements: US20190125735A1, “INHIBITION OF P38 MAPK FOR THE TREATMENT OF CANCER” (Board of Regents, The University of Texas System, priority 2015, published 2019)

What was measured:
4T1 cells = experiment: 4T1 orthotopic mouse mammary carcinoma model (primary tumor, lung metastasis, CTCs); assay type: in vivo
Description: In order to investigate this, the 4T1 mouse mammary carcinoma model, which recapitulates many of the characteristics of human breast cancer, was employed.
Tumor progression was monitored weekly using caliper measurements and bioluminescence. Starting week 3 post-implantation, 5 mice per group were sacrificed and surgically excised the primary tumors and lungs were surgically excised. […] This observation was corroborated by caliper measurements (FIG. 15C) and the bioluminescent signal emitted by these tumors (FIGS. 20A, 20B). Indeed, there were no significant differences in the latency and growth rates of the vehicle- and SB203580-treated primary tumors during this timecourse (FIGS. 15C and 20B).
NOD/SCID and BALB/c mice were purchased from the Jackson Laboratory (Bar Harbor, Me., USA). To examine primary tumor formation and spontaneous metastasis, luciferase-labeled 4T1 cells (1×10^4 or 5×10^4) were injected into the inguinal mammary fat-pad of BALB/c mice. For experimental metastasis studies, 0.5×10^6 luciferase-labeled MDA-MB-231 cells were injected into NOD/SCID mice via the tail vein. […] Mice were assessed weekly for tumor growth and metastasis via subcutaneous injection of D-Luciferin (150 mg/kg; Caliper LifeSciences, Hopkinton, Mass., USA) and bioluminescent imaging (IVIS imaging system 200 series; Xenogen Corporation, PerkinElmer, Waltham, Mass., USA). Primary tumor size was measured with a caliper as the product of two perpendicular diameters (mm^2). At the indicated timepoints, primary tumors and lungs were surgically excised, imaged and processed for histology.
Mice were orthotopically injected with red fluorescent protein (RFP)/luciferase-labeled 4T1 cells. Starting week 3 post-injection, blood was collected, via cardiac puncture, in EDTA-coated tubes and treated with Ammonium-Chloride-Potassium lysing buffer (Invitrogen). Cells were cultured in RPMI-1640 medium containing 10% fetal bovine serum and penicillin/streptomycin. RFP-positive colonies were counted after 3 days.

[1] = tested on: HMLE-Snail-ER and HMLE-Twist-ER cells; experiment: Sphere formation of 4-OHT-treated HMLE-Snail-ER and HMLE-Twist-ER cells; assay type: cell-based, human; conditions: 4-OHT-treated cells, SB203580 exposure
Procedure: FIGS. 15A-15L: p38 inhibition compromises the acquisition and maintenance of EMT and stem cell properties in vitro. […] Cells were harvested and the corresponding lysates were analyzed by immunoblotting for FOXC2, E-cadherin and mesenchymal markers. β-actin was used as a loading control. […] Cells were harvested at the indicated timepoints and the corresponding lysates were analyzed by immunoblotting for FOXC2, E-cadherin and mesenchymal markers. β-actin was used as a loading control. […] One thousand cells were seeded per well in ultra-low attachment plates and cultured for 7-10 days. Spheres with a diameter greater than 75 μm were counted. The data are reported as the number of spheres formed/1000 seeded cells±SEM. […] Data are presented as mean±SEM. […] The corresponding lysates were analyzed by immunoblotting for FOXC2, E-cadherin and mesenchymal markers. β-actin was used as a loading control. (F) The sphere-forming efficiency of 4-OHT-treated HMLE-Twist-ER cells, transduced with control shRNA (shControl) or p38 shRNA (shp38), was determined. […] (H) The sphere-forming efficiency of the indicated cells was determined in the presence of vehicle or SB203580. […] (J) The relative wound closure by the indicated cells, treated with vehicle or SB203580, was measured by image analysis and represented in a graphical format. […] Degradation of FITC-gelatin was quantified by image analysis. n=150 cells/sample. […]

## C[S+]([O-])c1ccc(-c2nc(-c3ccc(F)cc3)c(-c3ccncc3)[nH]2)cc1 (stereo not drawn) [SB203580, 4-(4-Fluorophenyl)-2-(4-methylsulfinylphenyl)-5-(4-pyridyl) 1H-imidazole]
4T1 cells; 4T1 cells, daily treatment, weeks 3-6
  Primary tumor size: primary tumors of a similar size relative to vehicle-treated counterparts
4T1 cells; 4T1 cells, systemic daily treatment
  Lung metastases (bioluminescent signal): strikingly fewer lung metastases
4T1 cells; mice harboring 4T1-FOXC2(S367E) cells
  Metastatic burden (lung): failed to significantly reduce the metastatic burden
4T1 cells; mice harboring 4T1-vector cells, daily SB203580
  Reduction of incidence of lung metastases compared to vehicle: > 20 fold
4T1 cells; mice harboring 4T1-vector or 4T1-FOXC2(S367E) cells
  Primary tumor growth: no significant differences in primary tumor growth
4T1 cells; vs vehicle-treated
  Microvessel density of primary tumors (CD31 immunohistochemistry): did not reveal significant differences
4T1 cells; week 6 post-implantation
  CTCs recovered from blood: very few CTCs were recovered
4T1 cells; weeks 3-5 post-implantation
  CTCs recovered from blood: no CTCs were recovered from SB203580-treated mice until week 5
[1]
  Sphere-forming potential: failed to acquire sphere-forming potential
